Measurements published in US10689381B2 (priority 2017, dated 2020).
Where two headings read alike, the source gives them in different places.

Legend:
HCT116/VM46 = test: cells; format: cell-based, human
Experimental: Compounds were tested for their cell growth inhibition of L1210 (ATCC no. CCL-219, mouse lymphocytic leukemia), HCT116 (ATCC no. CCL-247, human colorectal carcinoma), and HCT116/VM46 (a vinblastine-resistant strain of HCT116) cells in culture. A population of cells (>1×10^6 cells/mL as determined with a hemocytometer) was diluted with Dulbecco's Modified Eagle Medium (DMEM, Gibco) containing 10% fetal bovine serum (FBS, Gibco) to give a final concentration of 30,000 cells/mL. To each well of a 96-well plate (Corning® Costar®) was added 100 μL of the cell media solution with a multichannel pipet. The cultures were incubated at 37° C. in an atmosphere of 5% CO2 and 95% humidified air for 24 hours.
The test compounds were then added to the plate as follows: test compounds were diluted in DMSO to a concentration of 1 mM. 10-Fold serial dilutions in DMSO were next performed on a separate 96-well plate. Fresh culture media (100 μL) was added to each well of cells resulting in 200 μL of medium per well followed by 2 μL of each test agent. Compounds were tested in duplicate (n=2-8 times) at six concentrations between 0-1000 nM or 0-10000 nM. Following the addition of compound, cultures were incubated for an additional 72 hours.
The plates were incubated at 37° C. for 5 minutes (L1210) or 15 min (HCT116 and HCT116/VM46). After the given incubation time, 50 μL of 0.1 N NaOH was added to each well and the absorption at 405 nm was determined using a 96 well plate reader. […]

HCT116 = test: cells; format: cell-based, human
In short: (§1)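 Compound exposure ran 72 h at six concentrations (0–1000 nM or 0–10000 nM, duplicate) on cells plated at 30,000 cells/mL in 10% FBS DMEM. A closing 37 °C incubation took 15 min (HCT116) or 5 min (L1210).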

L1210 = test: cells; format: cell-based, mouse
In short: as §1

Tubulin = details: for percent (%) displacement of tubulin-bound BODIPY-vinblastine: FIG. 2, competitive ligand 18 μM
Experimental: Control studies were performed with BODIPY-VBL in the absence of a competitive ligand (control 1, maximum FI enhancement) and in the absence of tubulin (control 2, no FI enhancement). Percent (%) BODIPY-VBL displacement was calculated by the formula: (control 1 FI−experiment FI)/(Control 1 FI−Control 2 FI)×100%. Reported values are the average of 5 measurements±SD.

A549-T24 = test: cells; format: cell-based, human
From the text: (§2) 2001, 98:11737; Kavallaris et al., Brit. J. Cancer. 1999, 80:1020; and Kavallaris et al., J. Clin. Invest. 1997, 100:1282]. As a result, the comparison of cell growth inhibition of candidate drugs against A549 vs A549-T24 has been used to characterize potential resistance due to increased expression of class III β-tubulin [Goncalves et al., Proc. Natl. Acad. Sci. USA. 2001, 98:11737; Kavallaris et al., Brit. J. Cancer. 1999, 80:1020; and Kavallaris et al., J. Clin. Invest. 1997, 100:1282].

A549 = test: cells; format: cell-based, human; details: read-out: IC50 A549
From the text: as §2

[1] = table in Background, C20′ substituent X, read-out: IC50, HCT116/VM46
[2] = table in Background, C20′ substituent X, read-out: IC50, HCT116

SMILES | IC50 (HCT116/VM46; [1]) [nM] | IC50 (HCT116; [2]) [nM] | IC50 (L1210; Table 2) [nM] | IC50 (HCT116; Table 2, read-out: IC50 HCT116) [nM] | IC50 (L1210) [nM] | IC50 (HCT116; read-out: IC50 HCT116) [nM] | IC50 (A549-T24) [nM] | IC50 (A549) [nM] | other results
CCC1C[C@H]2CN(CCc3c([nH]c4ccccc34)[C@@](C(=O)OC)(c3cc4c(cc3OC)N(C)[C@H]3[C@@](O)(C(=O)OC)[C@H](OC(C)=O)[C@]5(CC)C=CCN6CC[C@]43[C@@H]65)C2)C1 (some centres unmarked) [Compound 4, reference compound] | 600 | 60 | – | – | – | – | – | – | –
CC[C@]1(N=[N+]=[N-])C[C@H]2CN(CCc3c([nH]c4ccccc34)[C@@](C(=O)OC)(c3cc4c(cc3OC)N(C)[C@H]3[C@@](O)(C(=O)OC)[C@H](OC(C)=O)[C@]5(CC)C=CCN6CC[C@]43[C@@H]65)C2)C1 [Compound 5, 20′-azidovinblastine] | 5500 | 690 | – | – | – | – | – | – | –
CC[C@]1(N)C[C@H]2CN(CCc3c([nH]c4ccccc34)[C@@](C(=O)OC)(c3cc4c(cc3OC)N(C)[C@H]3[C@@](O)(C(=O)OC)[C@H](OC(C)=O)[C@]5(CC)C=CCN6CC[C@]43[C@@H]65)C2)C1 [Compound 6, 20′-aminovinblastine] | > 10000 | 600 | – | – | – | – | – | – | –
CCC1(NC(=O)c2ccccc2)CC2CN(CCc3c([nH]c4ccccc34)C(C(=O)OC)(c3cc4c(cc3OC)N(C)C3C(O)(C(=O)OC)C(OC(C)=O)C5(CC)C=CCN6CCC43C65)C2)C1 (centres unmarked) [Compound 24] | – | – | 1.1 | 0.8 | – | – | – | – | percent (%) displacement of tubulin-bound BODIPY-vinblastine (Tubulin): 72±4%; potency relative to saturated cyclohexyl counterpart Compound 20 (more potent) (HCT116): > 50 fold; potency relative to vinblastine (more potent) (HCT116; vinblastine-sensitive cell lines): > 5 fold
CC[C@]1(NC(=O)c2ccc(C)c(C)c2)C[C@H]2CN(CCc3c([nH]c4ccccc34)[C@@](C(=O)OC)(c3cc4c(cc3OC)N(C)[C@H]3[C@@](O)(C(=O)OC)[C@H](OC(C)=O)[C@]5(CC)C=CCN6CC[C@]43[C@@H]65)C2)C1 [Compound 28] | – | – | 3 | 4.5 | 3 | 4.5 | 2.5 | 5 | % displacement (Tubulin; Table 9, displacement of tubulin bound BODIPY-vinblastine): 67 ± 8%; IC50 (HCT116/VM46; Table 2, read-out: IC50 HCT116/VM46): 7.6 nM; IC50 (HCT116/VM46; Table 10, read-out: IC50 (nM), HCT116/VM46): 7.6 nM; IC50 (HCT116/VM46; read-out: IC50 HCT116/VM46): 7.6 nM; IC50 (HCT116; Table 9, read-out: IC50 (nM, HCT116)): 4.5 nM; IC50 (HCT116; Table 10, read-out: IC50 (nM), HCT116): 4.5 nM
CC[C@]1(NC(=O)c2ccc(C#N)cc2)C[C@H]2CN(CCc3c([nH]c4ccccc34)[C@@](C(=O)OC)(c3cc4c(cc3OC)N(C)[C@H]3[C@@](O)(C(=O)OC)[C@H](OC(C)=O)[C@]5(CC)C=CCN6CC[C@]43[C@@H]65)C2)C1 [Compound 54] | – | – | 4.4 | 3.1 | – | – | – | – | percent (%) displacement of tubulin-bound BODIPY-vinblastine (Tubulin): 56±5%
CCC1(NC(=O)c2ccc(NC(C)=O)cc2)CC2CN(CCc3c([nH]c4ccccc34)C(C(=O)OC)(c3cc4c(cc3OC)N(C)C3C(O)(C(=O)OC)C(OC(C)=O)C5(CC)C=CCN6CCC43C65)C2)C1 (centres unmarked) [Compound 58] | – | – | 1.6 | 0.8 | 0.06 | 0.07 | 0.13 | 0.17 | –
CCC1(NC(=O)c2ccc(NC(=O)OC(C)(C)C)cc2)CC2CN(CCc3c([nH]c4ccccc34)C(C(=O)OC)(c3cc4c(cc3OC)N(C)C3C(O)(C(=O)OC)C(OC(C)=O)C5(CC)C=CCN6CCC43C65)C2)C1 (centres unmarked) [Compound 60] | – | – | 0.3 | 0.3 | 0.06 | 0.07 | 0.09 | 0.19 | –
